Reference: US11180463B2, “Thiazole inner salt compounds, and preparation methods and uses thereof” (Institute of Pharmacology and Toxicology Academy of …, priority 2013, dated 2021)
“And” between values parts separate entries of the source, which are not always exact repeats. Equal values may be shown once. Where a name gives a salt, the structure may show the parent alone. Read-outs that look alike come from different tables or passages of the source. Blank lines part the entries; values can stand above or below the compound they belong to.

Assays:
[1] = Accelerated stability test (RT40° C., RH75%); type: physicochemical; conditions: for Purity* (%) / Weight gain (%) / Appearance and color: RT40° C., RH75%; for Accelerated test, 3 months: appearance after 3 months at 40° C., humidity 75%, three batches
Protocol: Three batches of sample (prepared according to Example 2) were taken according to the Chinese Pharmacopoeia, 2010 Edition, packaged like packaging for sale (high-density polyethylene bags were used for drug packaging), placed under conditions of RT40° C., RH75% (NaCl saturated solution) to carry out accelerated test, after 1, 2, 3, 6 months, sampled for observation of the compound of Formula I and the compound of Formula A, compared to the data of the 0th day, and the results were shown in Table 1 and Table 2.
One batches of sample as prepared according to Example 3 were taken, packaged like packaging for sale (high-density polyethylene bags were used for drug packaging), placed under conditions of RT40° C., RH75% (NaCl saturated solution), after 1, 2, 3 months, sampled and compared to the data of the 0th day, and the results were shown in Table 3.
Three batches of sample of the compound of Formula A were taken according to the Chinese Pharmacopoeia, 2010 Edition, packaged like packaging for sale (high-density polyethylene bags were used for drug packaging), placed under conditions of RT40° C., RH75% (NaCl saturated solution), after 1, 2, 3 months, sampled and compared to the data of the 0th day, and the results were shown in Table 1 and Table 4.

[2] = system: rats with diabetes accompanied by hypertension; test: 24 h urine volume/water intake in rats with diabetes accompanied by hypertension; type: in vivo; conditions: 3rd week
Protocol: In the third week of administration, the rats of each group were solely placed and fed in metabolism cage, and the water intake and urine volume within 24 hours on the 19th, 20th and 21st day were recorded.
In the 3rd week of administering the compound of Example 2, Vurine/Vwater-intake values of rats in 24 hours were calculated.

[3] = system: RBC surface cross-linked IgG; test: In vitro breaking erythrocytic surface cross-linked IgG (ELISA, lytic rate); type: cell-based; conditions: RBC of 16 weeks diabetic rats, 37° C., 16-18 h
From the text: Because erythrocytic surface cross-linked IgG is a typical AGEs cross-linked structure, the determination of degree that a compound breaks erythrocytic surface cross-linked IgG is well known as a better method for evaluating the ability of the compound in breaking AGEs cross-linked structure (Bruceh. R. Wolffenbuttel, Breakers of advanced glycation end products restore large artery properties in experimental diabetes, Natl. Acad. Sci. U.S.A 1998, 95, 4630).
Method for treating blood cells: 16 weeks diabetic rats were narcotized, blood samples were got from their carotid arteries, added with heparin for anticoagulation, centrifuged at 4° C. and 1000 g for 3 min, the lower layer RBC (red blood cells) was taken; washed with 0.1 mol/L PBS (pH7.4) for 3 times, centrifuged each time at 4° C. and 1000 g for 3 min; and the lower layer RBC was used for test.
In vitro administration method: 0.1 mol/L isotonic PBS (phosphate buffer) (pH7.4) was used as negative control, each of the compounds to be tested formed solutions with different concentrations using the buffer. Into per 900 μL of solution or solvent, 100 μL RBC was added, slightly shook at 37° C. for 16-18 h; centrifuged at 1000 g, 4° C. for 3 min, the supernatant was discarded, the plate was washed with 0.1 mol/L PBS (pH7.4) for 4 times to remove residual compound; centrifuged at 1000 g, 4° C. for 3 min, the lower layer RBC was diluted in ratio of 1:100 for ELISA determination.
Procedure for determination of RBC surface cross-linked IgG content via immunoadsorption method: Multiscreen-HA 0.45 μm 96-well plate (Millipore), sealed with Superblock (300 μL/well), 37° C., 1 h; then drained under 5 mmHg of negative pressure, the whole plate was washed with PBST for 3 times, washed with 0.1M PBS (pH7.4) for twice, shaking plate each time for 1 min; added with RBC (50 μL/well) to be tested, another PBS background control well (OD0) was set; drained under negative pressure; washed with 150 μL of 0.1 mol/L PBS (pH7.4) for 4 times, shaking plate each time for 1 min. After being drained under negative pressure, the 1:500 diluted goat-anti-mouse IgG-HRP (50 μL/well) was added, stood at room temperature for 2 h, drained; washed with 0.1 mol/L PBS (pH7.4), 150 μL/well, for 3 times, shaking plate each time for 1 min; drained; added with o-phenylenediamine (OPD) substrate developing solution (100 μL/well), stood at room temperature in dark for 30 min, the reaction was terminated with 2 mol/L H2SO4 (100 μL/well); the reaction solution (150 μL/well) was sucked out quickly and transferred to a normal 96-well ELISA plate, and OD values were determined under 490 nm.
Calculation of Lytic Rates of the Compounds to be Tested: […]

[4] = system: rats with diabetes accompanied by hypertension; test: Blood pressure monitoring, compound of Example 2 alone (Example 7); type: in vivo; conditions: after 4 weeks
long-term diabetic rats = conditions: in vivo, cited from earlier work
[5] = system: rats with diabetes accompanied by hypertension
Protocol: In the meantime, pure diabetes group and normal control group of the same week-age were also set. The compound of Example 2 (36 mg/kg) was dissolved in distilled water just before use, administered intragastrically, once per day, for 5 weeks.

[6] = 36 mg/kg intragastrically once per day, Mean ± SD, n = 12
[7] = no significant change vs. model

- Purity* (%) ([1]; 0th month): 99.9%
- Weight gain (%) ([1]; 0th month): 0%
- Purity* (%) ([1]; 1st month): 99.8%
- Weight gain (%) ([1]; 1st month): 0.04%
- Purity* (%) ([1]; 2nd month): 99.7%
- Weight gain (%) ([1]; 2nd month): 0.06%
- Purity* (%) ([1]; 3rd month): 99.7%
- Weight gain (%) ([1]; 3rd month): 0.07%
Compound: 3-methylcarbonyloxy-4-methyl-thiazole inner salt monohydrate [Example 3]

Compound: Cc1csc[n+]1CC(=O)[O-] (as salt: salt) [Example 2]
- melting point: 169 °C

Compound: Cc1csc[n+]1CC(=O)[O-] [Example 2]
- Vurine [2, 6]: 318.3 ± 106.0 mL
- Vwater-intake [2, 6]: 375.0 ± 123.6 mL
- Vurine/Vwater-intake ([2]; 36 mg/kg, P < 0.01 vs. model): 0.86 ± 0.05
- Vurine/bodyweight ([2]; first line so headed (r8), 36 mg/kg): 0.88 ± 0.31 mL/g
- Vurine/bodyweight ([2]; second line so headed (r9), 36 mg/kg): 1.03 ± 0.34 mL/g
- Purity* (%) ([1]; 0th month): 100.0% and 99.6% and 99.8%
- Weight gain (%) ([1]; 0th month): 0%
- Purity* (%) ([1]; 1st month): 99.7% and 99.8%
- Weight gain (%) ([1]; 1st month): 0.11% and 0.12%
- Purity* (%) ([1]; 2nd month): 99.6% and 99.2%
- Weight gain (%) ([1]; 2nd month): 0.12% and 0.13%
- Purity* (%) ([1]; 3rd month): 99.8% and 99.3%
- Weight gain (%) ([1]; 3rd month): 0.15% and 0.14% and 0.13%
- Purity* (%) ([1]; 6th month): 99.9% and 99.6% and 99.8%
- Weight gain (%) ([1]; 6th month): 0.18% and 0.15%
- Accelerated test, 3 months [1]: no obvious appearance change no obvious appearance change no obvious appearance change
- Lytic rate (decrease of OD value, %) ([3]; 1 μM): 27.1 ± 2.2%
- Lytic rate (decrease of OD value, %) ([3]; 10 μM): 27.5 ± 2.9%
- Lytic rate (decrease of OD value, %) ([3]; 30 μM): 23.2 ± 5.1%
- Lytic rate (decrease of OD value, %) ([3]; 100 μM): 27.9 ± 3.0%
- systolic pressure variable coefficient (CV) during time period 10:00-20:00 ([4]; in comparison with the model group, P<0.01): significantly decrease
- average heart rate during time period 10:00-20:00 [4, 7]: 255±17 beats/min
- average pulse-pressure difference during time period 10:00-20:00 [4, 7]: 46.5±5.7 mmHg

Compound: Cc1csc[n+]1CC(=O)O.[Na+] [Formula A, 3-carboxymethyl-4metyl-bromothiazolium sodium salt, reference compound]
- AGEs fluorescence contents of aorta, myocardium of left ventricle and kidney (long-term diabetic rats; long-term diabetic rats): significantly reduce
- aorta compliance of diabetic rats (long-term diabetic rats; rat): improved
- cardiac output (long-term diabetic rats; rat): increased
- left ventricular function (long-term diabetic rats; rat): significantly improved
- Weight gain (%) ([1]; 0th month): 0%
- Purity* (%) ([1]; 0th month, sodium salt): 98.8% and 99.1% and 98.7%
- Appearance and color ([1]; 1st month): brown, tacky
- Purity* (%) ([1]; 1st month, sodium salt): 85.1% and 82.7% and 81.6%
- Weight gain (%) ([1]; 1st month, sodium salt): 18.0% and 18.5% and 19.0%
- Appearance and color ([1]; 2nd month): dark brown,
- Purity* (%) ([1]; 2nd month, sodium salt): 60.6% and 59.8% and 60.3%
- Weight gain (%) ([1]; 2nd month, sodium salt): 32.6% and 33.6% and 33.8%
- Appearance and color ([1]; 3rd month): dark brown,
- Purity* (%) ([1]; 3rd month, sodium salt): 51.2% and 48.5% and 54.6%
- Weight gain (%) ([1]; 3rd month, sodium salt): 41.5% and 42.1% and 44.0%
- Accelerated test, 3 months ([1]; listed as drawing 8, sodium salt): caking, appearance changing into dark brown caking, appearance changing into dark brown caking, appearance changing into dark brown
- Accelerated test, 3 months ([1]; sodium salt): easy to absorb moisture, agglomerate and change color

Compound: COC(=O)C1=C(C)NC(C)=C(C(=O)OC)C1c1ccccc1[N+](=O)[O-] [Nifedipine]
- systolic pressure variable coefficient (CV) ([5]; after administration for 1-5 h): 0.047±0.017
- ejection time (ET) ([5]; after administration for 20 min): 71.8 ± 4.2 ms
- average systolic pressure ([5]; after administration for 1 h): 155.2±14.9 mmHg
- pressure drop ΔSBP ([5]; after administration for 1.5 h): 25.3±9.3 mmHg
- average pulse-pressure difference (PH) ([5]; after administration for 5 h): 48.1±5.1 mmHg
- average systolic pressure ([5]; after administration for 5 h): 166.0±15.0 mmHg
- ejection time (ET) ([5]; after administration for 5 h): 81.1 ± 5.0 ms
- pressure drop ΔSBP ([5]; after administration for 5 h): 15.9±9.3 mmHg
- average pulse-pressure difference (PH) ([5]; after administration for 10 h): 48.7±5.2 mmHg
- average systolic pressure ([5]; after administration for 10 h): 179.0±14.1 mmHg
- pressure drop ΔSBP ([5]; after administration for 10 h): 1.19±3.5 mmHg
- time after administration at which the systolic pressure started to rise ([5]; rat, in vivo): 2 h
- time after which pulse-pressure difference (PH) started to rise ([5]; rat, in vivo): 1 h
- time at which ET recovered the level before administration ([5]; rat, in vivo): 5 h
